From US7407940B2, “Antimicrobial hexapeptides” (Helix BioMedix Inc., priority 2005, dated 2008)
Where two headings read alike, the source gives them in different places. Where a SMILES comes first, the peptide text is derived from it. Where no end group is shown, it is not given here. [ ]: non-standard residue; d: D form. The star is where a group is joined. Undecanoyl = CCCCCCCCCCC(=O)*; Lauroyl = CCCCCCCCCCCC(=O)*; Octanoyl = CCCCCCCC(=O)*

Key:
[1] = test system: azole resistant strains of C. albicans; type: cell-based; parameters: MIC-SEQ ID NO: 55 + azole, peptide part / MIC-SEQ ID NO: 55 + azole, azole part: unit not given beside the values; conditions: in combination with clotrimazole
Experimental: (§1) The fractional inhibitory concentration (FIC) index was used to determine the synergy between antimicrobial agents. Peptide MICs against test microorganisms were determined three times on separate occasions. […]
All strains are azole resistant clinical isolates from Prof. Ted White (Seattle Biotechnology Research Institute, Seattle)

[2] = test system: Pseudomonas aeruginosa; type: cell-based; parameters: MIC, lipid length SAR: unit not given here; conditions: P.aeruginosa
In short: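 Read-out is visible turbidity: the MIC is the lowest drug concentration keeping wells clear at 35° C, after 16 to 20 hours for bacteria and 46 to 50 hours for Candida. Cells were seeded at 2×10^5–7×10^5 CFU/ml (bacteria) or 2×10^3–7×10^3 CFU/ml (Candida) in NCCLS-recommended medium.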

[3] = test system: P. aeruginosa; type: cell-based; conditions: combined with polymyxin B
Experimental: as §1

[4] = test system: S. epidermidis ATCC12228; assay: MIC, broth microdilution, S. epidermidis; type: cell-based; parameters: unit not given beside the values; conditions: #86: S. epidermidis ATCC12228
Experimental: (§2) MICs (minimal inhibitory concentrations) were determined for the hexapeptides of interest using a slightly modified version of the NCCLS (National Committee for Clinical Laboratory Standards) broth microdilution method as described previously (Steinberg et al., AAC 41: 1738, 1997). Briefly, antimicrobial agents were prepared as 10× concentrates in the most appropriate solvent. For the hexapeptide, 0.01% acetic acid containing 0.2% bovine serum albumin as a carrier protein was used. Inocula were prepared by resuspending colonies from a BAP (please spell out this term) in medium and adjusting the suspension to match that of a 0.5 McFarland standard. The suspension was diluted into fresh medium (as recommended by NCCLS for the organism) to give 2×10^5 to 7×10^5 CFU/ml for bacteria or 2×10^3 to 7×10^3 CFU/ml for Candida. After dispensing 100 μl aliquots of the microbial suspension into each well of a 96-well polypropylene microtiter plate, 11 μl of test compound was added. The MIC was defined as the lowest concentration of drug which prevented visible turbidity after 16 to 20 hours (bacteria) or 46 to 50 hours (Candida) at 35° C.

[5] = test system: Salmonella typhimurium 14028S; assay: MIC, broth microdilution, S. typhimurium; type: cell-based; parameters: unit not given here; conditions: S.typhimurium
Experimental: as §2

[6] = test system: P. acnes; assay: Activity against extended panel of P. acnes; type: cell-based; parameters: unit not given here
Description: A very promising application for short bioactive peptides is for dermatological indications such as acne.

[7] = test system: MRSA; assay: Kill curve in 10% sheep serum-phosphate buffer against MRSA; type: cell-based, S. aureus; parameters: MRSA count in kill curve: unit not given here
[8] = test system: S. aureus MRSA; assay: Kill kinetics in lipid (liposome) environment with or without serum; type: cell-based; conditions: peptide 0.5 mg/ml; liposomes, presence or absence of serum
Description: Referring to FIG. 8, not only does lipidation improve the activity of hexapeptides in serum it improves activity in a lipid environment which is a mimic of the human acne lesion environment. The human sebaceous gland secretion, also called sebum, contains squalene, cholesterol, cholesterol esters, wax esters, and triglycerides in which a large […] of P. acnes appears to take advantage of this environment and hydrolyzes certain sebaceous lipids. The pre-pubertal and pubertal increase in sebum secretion is almost certainly involved in the pathogenesis of adolescent acne. The activity of SEQ ID NO: 55 was studied in this environment compared to P64(SEQ ID NO:90), a traditional cationic antimicrobial peptide. Due to the fact that most lipids are water insoluble, peptide-liposomes composed of phosphatidylcholine, phosphatidylglycerol and cholesterol in the molar ratio of 7:2:1 in saline were used and kill kinetics of the peptides were assessed in the presence or absence of serum.

[9] = test system: Trychophyton rubrum; assay: MIC100 against dermatophyte Trychophyton rubrum; type: cell-based; conditions: T. rubrum; 125 ppm, day ten
Experimental: (§3) In order to compare the activity of various antimicrobial peptides, including hexapeptide SEQ ID NO:1 (P0666), MIC were determined against the dermatophytes Trychophyton rubrum and Trychophyton mentagrophytes. The concentration of samples investigated were: 2000, 1000, 500, 250 and 125 μg/ml, respectively. The medium used was modified Sabouraud's media without agar. For a 100 mL of modified Sabouraud medium: 3 g of Sabouraud's dextrose broth (Difco) was mixed into 100 mL of deionized water. The pH was adjusted to 7.0 with 0.1 N NaOH. The solution was autoclaved for thirty minutes. 940 μL of medium was poured into sterile 20 mL test tubes with plastic caps and was allowed to cool.
(§4) 50 μL of […] was added to each 20 mL test tube to make the required concentration. A control tube was composed of 50 μL of saline without sample. For the MIC experiments,
(§5) 10 μL of organism suspended in saline was added to the each 20 mL test tube and vortexed slightly. Each of the test tubes was covered in parafilm and maintained on a shaker at 27° C. at a speed of approximately 100 rpm.
(§6) The growth/inhibition of the organism was observed on a daily basis. […] The Minimum Inhibition Concentration (MIC100) for compounds F1 to F10 against fungus Trychophyton rubrum and Trychophyton mentagrophytes at 10 days.

[10] = test system: Trychophyton mentagrophytes; assay: MIC100 against dermatophyte Trychophyton mentagrophytes; type: cell-based; conditions: T. mentagrophytes; 125 ppm, day ten
Experimental: as §3, §4, §5, §6

[11] = Systemic toxicity, tail vein injection; type: in vivo; conditions: mouse, IV, 20 mg/kg
[12] = test system: S. aureus; assay: Kill curve in 80% serum, S. aureus; type: cell-based
Description: It should be noted that in addition to MIC data, the lipo-hexapeptides can also be distinguished by their ability to kill bacteria in the presence of biological constituents such as serum. […] This activity, an indicator of therapeutic potential, is not obvious from the MIC data alone.

Compound: CCCCCCCC(=O)N[C@@H](CCCCN)C(=O)N[C@@H](Cc1ccccc1)C(=O)N[C@@H](CCCCN)C(=O)N[C@@H](Cc1c[nH]c2ccccc12)C(=O)N1CCC[C@H]1C(=O)N[C@@H](Cc1c[nH]c2ccccc12)C(N)=O [SEQ ID NO: 55, OCT-KFKWPW-NH2] (Octanoyl-KFKWPW-NH2)
- MIC-SEQ ID NO: 55 + azole, peptide part ([1]; C. albicans #185): 16
- MIC-SEQ ID NO: 55 + azole, peptide part ([1]; C. albicans #186): 2
- MIC-SEQ ID NO: 55 + azole, peptide part ([1]; C. albicans #187): 4
- MIC-SEQ ID NO: 55 + azole, peptide part ([1]; C. albicans #192): 4
- MIC-SEQ ID NO: 55 + azole, peptide part ([1]; C. albicans #196): 4
- MIC-SEQ ID NO: 55 + azole, peptide part ([1]; C. albicans #199): 4
- MIC, lipid length SAR [2]: 32
- MIC-NO: 55 combined ([3]; P. aeruginosa 100609): 2 µg/mL
- MIC-NO: 55 combined ([3]; P. aeruginosa H187): 8 µg/mL
- MIC-NO: 55 combined ([3]; P. aeruginosa H401): 2 µg/mL
- MIC-NO: 55 combined ([3]; P. aeruginosa M917): 16 µg/mL
- MIC [4]: 8
- MIC, lipid length SAR [5]: 32
- Activity (MIC) against P. acnes ([6]; ATCC 6921): 4
- Activity (MIC) against P. acnes ([6]; ATCC 6922): 8
- Activity (MIC) against P. acnes ([6]; ATCC 6923): 8
- Activity (MIC) against P. acnes ([6]; ATCC 11828): 8
- Activity (MIC) against P. acnes ([6]; ATCC 12930): 8
- Activity (MIC) against P. acnes ([6]; ATCC 25746): 1
- Activity (MIC) against P. acnes ([6]; ATCC 29399): 16
- Activity (MIC) against P. acnes ([6]; ATCC 33179): 16
- Activity (MIC) against P. acnes ([6]; ATCC 49929): 0.125
- Activity (MIC) against P. acnes ([6]; ATCC 51277): 4
- MRSA count in kill curve ([7]; buffer, 1 mg/ml, 30 min): 100
- MRSA count in kill curve ([7]; buffer, 1 mg/ml, 1 hour): 100
- MRSA count in kill curve ([7]; buffer, 1 mg/ml, 2 hours): 10
- MRSA count in kill curve ([7]; buffer, 1 mg/ml, 3 hours): 10
- MRSA count in kill curve ([7]; buffer, 1 mg/ml, 4 hours): 10
- MRSA count in kill curve ([7]; buffer, 1 mg/ml, 5 hours): 10
- MRSA count in kill curve ([7]; serum, 0.5 mg/ml, 30 min): 10
- MRSA count in kill curve ([7]; serum, 0.5 mg/ml, 1 hour): 10
- MRSA count in kill curve ([7]; serum, 0.5 mg/ml, 2 hours): 10
- MRSA count in kill curve ([7]; serum, 0.5 mg/ml, 3 hours): 10
- MRSA count in kill curve ([7]; serum, 0.5 mg/ml, 4 hours): 10
- MRSA count in kill curve ([7]; serum, 0.5 mg/ml, 5 hours): 10
- MRSA count in kill curve ([7]; serum, 1 mg/ml, 30 min): 3900
- MRSA count in kill curve ([7]; serum, 1 mg/ml, 1 hour): 1100
- MRSA count in kill curve ([7]; serum, 1 mg/ml, 2 hours): 100
- MRSA count in kill curve ([7]; serum, 1 mg/ml, 3 hours): 30
- MRSA count in kill curve ([7]; serum, 1 mg/ml, 4 hours): 20
- MRSA count in kill curve ([7]; serum, 1 mg/ml, 5 hours): 60
- MRSA count in kill curve ([7]; serum, 2 mg/ml, 30 min): 1000000
- MRSA count in kill curve ([7]; serum, 2 mg/ml, 1 hour): 1000000
- MRSA count in kill curve ([7]; serum, 2 mg/ml, 2 hours): 1000000
- MRSA count in kill curve ([7]; serum, 2 mg/ml, 3 hours): 1000000
- MRSA count in kill curve ([7]; serum, 2 mg/ml, 4 hours): 1000000
- MRSA count in kill curve ([7]; serum, 2 mg/ml, 5 hours): 1000000
- kill kinetics in lipid environment (in words) [8]: shown to be effective

Compound: KFKWPW-NH2 [SEQ ID NO:1]
- growth of organism [9]: only a slight growth
- growth of organism [10]: only a slight growth
- Result (systemic toxicity) ([11]; solvent water): did not elicit systemic toxicity

Compound: KYKKALKKLAKLL-NH2 [SEQ ID NO:92]
- Result (systemic toxicity) ([11]; solvent ringers): 3/3 dead

Compound: Lau-kfkwpw-NH2 (Lauroyl-[dK][dF][dK][dW][dP][dW]-NH2; SMILES CCCCCCCCCCCC(=O)N[C@H](CCCCN)C(=O)N[C@H](Cc1ccccc1)C(=O)N[C@H](CCCCN)C(=O)N[C@H](Cc1c[nH]c2ccccc12)C(=O)N1CCC[C@@H]1C(=O)N[C@H](Cc1c[nH]c2ccccc12)C(N)=O) [SEQ ID NO: 83]
- killing of S. aureus in 80% serum (in words) [12]: perform very well

Compound: Und-KFKWPW-NH2 (Undecanoyl-KFKWPW-NH2; SMILES CCCCCCCCCCC(=O)N[C@@H](CCCCN)C(=O)N[C@@H](Cc1ccccc1)C(=O)N[C@@H](CCCCN)C(=O)N[C@@H](Cc1c[nH]c2ccccc12)C(=O)N1CCC[C@H]1C(=O)N[C@@H](Cc1c[nH]c2ccccc12)C(N)=O) [SEQ ID NO: 79]
- MIC, lipid length SAR [2]: 8-16
- MIC, lipid length SAR [5]: 8-16
- killing of S. aureus in 80% serum (in words) [12]: perform very well
